Source: paper PMC2818328 (Bioorganic & medicinal chemistry letters, 2009)

Experiments:
[1] = target: GCPII (Homo sapiens, UniProt Q04609); test: fluorescence-based NAALADase assay, in vitro GCPII inhibitory activity; details: relative to 32a
[2] = test system: inflammatory and neuropathic pain models; details: cited from earlier work
[3] = target: cloned human GCPII; details: cited from earlier work

GCPII, sequence (Q04609 whole entry): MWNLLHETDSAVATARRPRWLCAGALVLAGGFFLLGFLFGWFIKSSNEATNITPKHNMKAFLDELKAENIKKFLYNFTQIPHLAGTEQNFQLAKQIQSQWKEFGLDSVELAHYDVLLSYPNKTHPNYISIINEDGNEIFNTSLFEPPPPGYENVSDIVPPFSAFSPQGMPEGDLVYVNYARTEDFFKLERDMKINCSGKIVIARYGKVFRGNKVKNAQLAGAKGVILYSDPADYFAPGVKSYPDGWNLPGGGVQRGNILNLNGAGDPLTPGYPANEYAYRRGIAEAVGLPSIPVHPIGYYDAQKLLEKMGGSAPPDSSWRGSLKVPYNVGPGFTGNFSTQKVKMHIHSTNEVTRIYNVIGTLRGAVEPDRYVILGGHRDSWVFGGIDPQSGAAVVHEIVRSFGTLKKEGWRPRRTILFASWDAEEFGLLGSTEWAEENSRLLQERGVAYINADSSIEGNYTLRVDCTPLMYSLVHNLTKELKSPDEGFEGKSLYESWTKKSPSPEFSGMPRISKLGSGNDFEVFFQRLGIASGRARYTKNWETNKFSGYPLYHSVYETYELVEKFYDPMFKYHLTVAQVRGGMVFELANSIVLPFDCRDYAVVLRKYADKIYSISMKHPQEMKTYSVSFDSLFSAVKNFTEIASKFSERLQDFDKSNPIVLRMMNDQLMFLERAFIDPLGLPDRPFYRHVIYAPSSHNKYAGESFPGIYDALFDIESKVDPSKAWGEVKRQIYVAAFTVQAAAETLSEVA

Row | SMILES | fold stronger binding affinity for GCPII compared to 32a [1] | penetration of the blood-brain barrier [2] | analgesic activity ([2]; high doses (50–100 mg/kg) needed) | Ki [3]
1 | O=C(N[C@@H](CCCCNC(=O)c1ccc(I)cc1)C(=O)O)NC1(C(=O)O)CC1 [32c] | 4 fold | – | – | –
2 | C=CC[C@H](NC(=O)N[C@@H](CCCCNC(=O)c1ccc(I)cc1)C(=O)O)C(=O)O [32d] | 120 fold | – | – | –
3 | CC(C)C[C@H](NC(=O)N[C@@H](CCC(=O)O)C(=O)O)C(=O)O [ZJ-43, (S)-2-(3-((S)-1-carboxy-3-methylbutyl)ureido)pentanedioic acid] | – | low penetration | demonstrated analgesic activity | 0.8 nM
